Laboratory results from ChEMBL document CHEMBL3885861, “Open TG-GATES”.

Organism: Rattus norvegicus
Experiment: Open TG-GATES - Regimen: Daily Repeat
Format: toxicity, organism-based, Sprague-Dawley
Design: regimen Daily Repeat, gender Male, age 6 weeks
Settings: in vivo, po, route gavage; for APTT / Bas / Eos / Fbg / Hb / Ht / Lym / MCH / MCHC / MCV / Mono / Neu / PT / Plat / RBC / Ret / WBC: tissue Blood; for KIDNEY_L / KIDNEY_R / KIDNEY_TOTAL: tissue Kidney; for LIVER: tissue Liver; for A/G / ALP / ALT / AST / BUN / CRE / Ca / Cl / DBIL / GLC / IP / K / LDH / Na / PL / RALB / TBIL / TC / TG / TP / gamma-GTP: tissue Plasma
[1] = 0 mg/kg, 72 h, dose level Control, time 3 day
[2] = 0 mg/kg, […], dose level Control, time 7 day
[3] = 0 mg/kg, […], dose level Control, time 14 day
[4] = 0 mg/kg, […], dose level Control, time 28 day
[5] = 3 mg/kg, 72 h, dose level Low, time 3 day
[6] = 3 mg/kg, […], dose level Low, time 7 day
[7] = 3 mg/kg, […], dose level Low, time 14 day
[8] = 3 mg/kg, […], dose level Low, time 28 day

## C[C@H]1C(=O)O[C@@H]2CCN3CC=C(COC(=O)[C@](C)(O)[C@]1(C)O)[C@H]23 [MONOCROTALINE]
[1]
  TERMINAL_BW: 230.9 g
  APTT: 21.2 s
  Bas: 0%
  Eos: 0.6%
  Fbg: 311.8 mg/dL
  Hb: 13.5 g/dL
  Ht: 39.5%
  Lym: 83.8%
  MCH: 21.5 pg
  MCHC: 34.3%
  MCV: 62.6 fL
  Mono: 2%
  Neu: 12.4%
  PT: 15.8 s
  Plat: 119.6 x10_4/uL
  RBC: 631.2 x10_4/ul
  Ret: 6.9%
  WBC: 91.2 x10_2/uL
  KIDNEY_L: 1 g
  KIDNEY_R: 1 g
  KIDNEY_TOTAL: 2.1 g
  LIVER: 11 g
  A/G: 1.2
  ALP: 1771.6 IU/L
  ALT: 40.2 IU/L
  AST: 70 IU/L
  BUN: 18.2 mg/dL
  CRE: 0.2 mg/dL
  Ca: 10.6 mg/dL
  Cl: 105.6 meq/L
  DBIL: 0.004 mg/dL
  GLC: 191.4 mg/dL
  IP: 6.9 mg/dL
  K: 4.6 meq/L
  LDH: 222.4 IU/L
  Na: 142.2 meq/L
  PL: 164 mg/dL
  RALB: 3.1 g/dL
  TBIL: 0.008 mg/dL
  TC: 83.8 mg/dL
  TG: 119 mg/dL
  TP: 5.6 g/dL
  gamma-GTP: 1.2 IU/L
[2]
  TERMINAL_BW: 267 g
  APTT: 21 s
  Bas: 0%
  Eos: 0.8%
  Fbg: 309.8 mg/dL
  Hb: 13.3 g/dL
  Ht: 38.4%
  Lym: 80.6%
  MCH: 20.8 pg
  MCHC: 34.7%
  MCV: 60.2 fL
  Mono: 2.6%
  Neu: 15.2%
  PT: 16.6 s
  Plat: 111.7 x10_4/uL
  RBC: 638.2 x10_4/ul
  Ret: 6.1%
  WBC: 108.8 x10_2/uL
  KIDNEY_L: 1.1 g
  KIDNEY_R: 1.1 g
  KIDNEY_TOTAL: 2.2 g
  LIVER: 12.7 g
  A/G: 1.2
  ALP: 1469.6 IU/L
  ALT: 37.8 IU/L
  AST: 65 IU/L
  BUN: 18 mg/dL
  CRE: 0.2 mg/dL
  Ca: 10.7 mg/dL
  Cl: 105.4 meq/L
  DBIL: 0 mg/dL
  GLC: 187 mg/dL
  IP: 7 mg/dL
  K: 4.3 meq/L
  LDH: 182.2 IU/L
  Na: 142.4 meq/L
  PL: 156.2 mg/dL
  RALB: 3.1 g/dL
  TBIL: 0.002 mg/dL
  TC: 79.6 mg/dL
  TG: 111 mg/dL
  TP: 5.6 g/dL
  gamma-GTP: 1 IU/L
[3]
  TERMINAL_BW: 315.5 g
  APTT: 20.5 s
  Bas: 0%
  Eos: 1%
  Fbg: 323.2 mg/dL
  Hb: 14.1 g/dL
  Ht: 39.6%
  Lym: 78.4%
  MCH: 20.7 pg
  MCHC: 35.6%
  MCV: 58.1 fL
  Mono: 2.8%
  Neu: 16.8%
  PT: 16.7 s
  Plat: 104.7 x10_4/uL
  RBC: 681.6 x10_4/ul
  Ret: 4.5%
  WBC: 124 x10_2/uL
  KIDNEY_L: 1.3 g
  KIDNEY_R: 1.3 g
  KIDNEY_TOTAL: 2.5 g
  LIVER: 13.3 g
  A/G: 1.2
  ALP: 1565.6 IU/L
  ALT: 36 IU/L
  AST: 68.6 IU/L
  BUN: 19.4 mg/dL
  CRE: 0.2 mg/dL
  Ca: 10.8 mg/dL
  Cl: 105.6 meq/L
  DBIL: 0.002 mg/dL
  GLC: 194 mg/dL
  IP: 6.6 mg/dL
  K: 4.3 meq/L
  LDH: 217 IU/L
  Na: 142.4 meq/L
  PL: 144 mg/dL
  RALB: 3.2 g/dL
  TBIL: 0 mg/dL
  TC: 66.6 mg/dL
  TG: 148 mg/dL
  TP: 5.9 g/dL
  gamma-GTP: 1.6 IU/L
[4]
  TERMINAL_BW: 368.8 g
  APTT: 22.4 s
  Bas: 0%
  Eos: 1.2%
  Fbg: 314.2 mg/dL
  Hb: 14.7 g/dL
  Ht: 40.6%
  Lym: 82.2%
  MCH: 19.7 pg
  MCHC: 36.1%
  MCV: 54.6 fL
  Mono: 2%
  Neu: 13.6%
  PT: 16 s
  Plat: 102 x10_4/uL
  RBC: 744.4 x10_4/ul
  Ret: 2.6%
  WBC: 110.5 x10_2/uL
  KIDNEY_L: 1.3 g
  KIDNEY_R: 1.4 g
  KIDNEY_TOTAL: 2.7 g
  LIVER: 14.7 g
  A/G: 1.1
  ALP: 1093.2 IU/L
  ALT: 53 IU/L
  AST: 79.6 IU/L
  BUN: 18.8 mg/dL
  CRE: 0.2 mg/dL
  Ca: 10.6 mg/dL
  Cl: 106.8 meq/L
  DBIL: 0 mg/dL
  GLC: 190.2 mg/dL
  IP: 6.3 mg/dL
  K: 4.1 meq/L
  LDH: 176.4 IU/L
  Na: 141.8 meq/L
  PL: 152.6 mg/dL
  RALB: 3.2 g/dL
  TBIL: 0.01 mg/dL
  TC: 74 mg/dL
  TG: 160.4 mg/dL
  TP: 6 g/dL
  gamma-GTP: 1 IU/L
[5]
  TERMINAL_BW: 234.1 g
  APTT: 21.2 s
  Bas: 0%
  Eos: 0.8%
  Fbg: 311.8 mg/dL
  Hb: 13.5 g/dL
  Ht: 39.5%
  Lym: 80.2%
  MCH: 20.8 pg
  MCHC: 34%
  MCV: 61.2 fL
  Mono: 2%
  Neu: 16.2%
  PT: 15.9 s
  Plat: 130.1 x10_4/uL
  RBC: 646.2 x10_4/ul
  Ret: 7.1%
  WBC: 122.6 x10_2/uL
  KIDNEY_L: 1 g
  KIDNEY_R: 1 g
  KIDNEY_TOTAL: 2 g
  LIVER: 10.8 g
  A/G: 1.2
  ALP: 1957.6 IU/L
  ALT: 43.6 IU/L
  AST: 74.6 IU/L
  BUN: 16.4 mg/dL
  CRE: 0.1 mg/dL
  Ca: 10.7 mg/dL
  Cl: 106 meq/L
  DBIL: 0.002 mg/dL
  GLC: 187.2 mg/dL
  IP: 6.9 mg/dL
  K: 4.4 meq/L
  LDH: 267.2 IU/L
  Na: 142.8 meq/L
  PL: 154 mg/dL
  RALB: 3.2 g/dL
  TBIL: 0.014 mg/dL
  TC: 83.8 mg/dL
  TG: 104 mg/dL
  TP: 5.7 g/dL
  gamma-GTP: 1.2 IU/L
[6]
  TERMINAL_BW: 266.3 g
  APTT: 22.4 s
  Bas: 0%
  Eos: 0.8%
  Fbg: 328.2 mg/dL
  Hb: 13.9 g/dL
  Ht: 39.9%
  Lym: 80.4%
  MCH: 21.1 pg
  MCHC: 34.8%
  MCV: 60.5 fL
  Mono: 2.4%
  Neu: 15.2%
  PT: 16.2 s
  Plat: 119.7 x10_4/uL
  RBC: 659.4 x10_4/ul
  Ret: 5.7%
  WBC: 105.4 x10_2/uL
  KIDNEY_L: 1.1 g
  KIDNEY_R: 1.2 g
  KIDNEY_TOTAL: 2.3 g
  LIVER: 12.4 g
  A/G: 1.1
  ALP: 1693.8 IU/L
  ALT: 43.2 IU/L
  AST: 75 IU/L
  BUN: 17 mg/dL
  CRE: 0.2 mg/dL
  Ca: 10.7 mg/dL
  Cl: 105.6 meq/L
  DBIL: 0 mg/dL
  GLC: 187 mg/dL
  IP: 7 mg/dL
  K: 4.2 meq/L
  LDH: 248 IU/L
  Na: 142.6 meq/L
  PL: 151.6 mg/dL
  RALB: 3.1 g/dL
  TBIL: 0.008 mg/dL
  TC: 80.8 mg/dL
  TG: 121.8 mg/dL
  TP: 5.8 g/dL
  gamma-GTP: 1.2 IU/L
[7]
  TERMINAL_BW: 294.8 g
  APTT: 20.2 s
  Bas: 0%
  Eos: 0.4%
  Fbg: 413 mg/dL
  Hb: 14.3 g/dL
  Ht: 40.6%
  Lym: 81.6%
  MCH: 20.1 pg
  MCHC: 35%
  MCV: 57.4 fL
  Mono: 3.8%
  Neu: 12.8%
  PT: 16 s
  Plat: 120.5 x10_4/uL
  RBC: 708 x10_4/ul
  Ret: 3.3%
  WBC: 187.2 x10_2/uL
  KIDNEY_L: 1.2 g
  KIDNEY_R: 1.2 g
  KIDNEY_TOTAL: 2.4 g
  LIVER: 13.6 g
  A/G: 1
[8]
  TERMINAL_BW: 359.6 g
  APTT: 23 s
  Bas: 0%
  Eos: 0.8%
  Fbg: 332.8 mg/dL
  Hb: 14.1 g/dL
  Ht: 40.2%
  Lym: 84.2%
  MCH: 19 pg
  MCHC: 35.1%
  MCV: 54 fL
  Mono: 1.8%
  Neu: 12.4%
  PT: 15.4 s
  Plat: 102.5 x10_4/uL
  RBC: 745.6 x10_4/ul
  Ret: 4.2%
  WBC: 146.6 x10_2/uL
  KIDNEY_L: 1.3 g
  KIDNEY_R: 1.3 g
  KIDNEY_TOTAL: 2.6 g
  LIVER: 17.2 g
